Laboratory results reported in ChEMBL document CHEMBL4627246, “Pyroglutamide-Based P2X7 Receptor Antagonists Targeting Inflammatory Bowel Disease” (J Med Chem, 2020).

Each compound was assayed on T47D (assay: Cytotoxicity against human T47D cells assessed as effect on cell growth at 10 uM incubated for 48 hrs by sulforhodamine B assay). Conditions: not given.
Type: cell-based
For `CN(C)/C=C1\C[C@H]2C(=O)N(/C(=C/N(C)C)c3ccncc3)C(N(C)C)N2C1=O` (stereo not given in full), the Activity was “Non-Toxic”. In the case of `O=C(NCc1ccc(Cl)cc1Cl)[C@@H]1CCC(=O)N1c1ccc(Cl)cc1`, the Activity is reported as “Non-Toxic”.

The compounds below were run on HCC 2998 (assay: Cytotoxicity against human HCC2998 cells assessed as effect on cell growth at 10 uM incubated for 48 hrs by sulforhodamine B assay). Conditions: hcc 2998, 48 h.
Type: cell-based
In the case of `CN(C)/C=C1\C[C@H]2C(=O)N(/C(=C/N(C)C)c3ccncc3)C(N(C)C)N2C1=O` (stereo not given in full), the Activity is reported as “Non-Toxic”. For `O=C(NCc1ccc(Cl)cc1Cl)[C@@H]1CCC(=O)N1c1ccc(Cl)cc1`, the Activity was “Non-Toxic”.

The compounds below were run on SNB-75 (assay: Cytotoxicity against human SNB75 cells assessed as effect on cell growth at 10 uM incubated for 48 hrs by sulforhodamine B assay). Conditions: snb-75, 48 h.
Type: cell-based
`CN(C)/C=C1\C[C@H]2C(=O)N(/C(=C/N(C)C)c3ccncc3)C(N(C)C)N2C1=O` (stereo not given in full) was tested, and the Activity was “Non-Toxic”. In the case of `O=C(NCc1ccc(Cl)cc1Cl)[C@@H]1CCC(=O)N1c1ccc(Cl)cc1`, the Activity is reported as “Non-Toxic”.

What follows are compounds tested on OVCAR-8 (assay: Cytotoxicity against human OVCAR8 cells assessed as effect on cell growth at 10 uM incubated for 48 hrs by sulforhodamine B assay). Conditions: ovcar-8, 48 h.
Type: cell-based
In the case of `CN(C)/C=C1\C[C@H]2C(=O)N(/C(=C/N(C)C)c3ccncc3)C(N(C)C)N2C1=O` (stereo not given in full), the Activity is reported as “Non-Toxic”. `O=C(NCc1ccc(Cl)cc1Cl)[C@@H]1CCC(=O)N1c1ccc(Cl)cc1` was tested, and the Activity was “Non-Toxic”.

The compounds below were run on MDA-MB-468 (assay: Cytotoxicity against human MDA-MB-468 cells assessed as effect on cell growth at 10 uM incubated for 48 hrs by sulforhodamine B assay). Conditions: mda-mb-468, 48 h.
Type: cell-based
`CN(C)/C=C1\C[C@H]2C(=O)N(/C(=C/N(C)C)c3ccncc3)C(N(C)C)N2C1=O` (stereo not given in full) was tested, and the Activity was “Non-Toxic”. For `O=C(NCc1ccc(Cl)cc1Cl)[C@@H]1CCC(=O)N1c1ccc(Cl)cc1`, the Activity was “Non-Toxic”.

These compounds were tested on NCI-H322M (assay: Cytotoxicity against human NCI-H322M cells assessed as effect on cell growth at 10 uM incubated for 48 hrs by sulforhodamine B assay). Conditions: not given.
Type: cell-based
In the case of `CN(C)/C=C1\C[C@H]2C(=O)N(/C(=C/N(C)C)c3ccncc3)C(N(C)C)N2C1=O` (stereo not given in full), the Activity is reported as “Non-Toxic”. For `O=C(NCc1ccc(Cl)cc1Cl)[C@@H]1CCC(=O)N1c1ccc(Cl)cc1`, the Activity was “Non-Toxic”.

What follows are compounds tested on COLO 205 (assay: Cytotoxicity against human COLO205 cells assessed as effect on cell growth at 10 uM incubated for 48 hrs by sulforhodamine B assay). Conditions: colo 205, 48 h.
Type: cell-based
`CN(C)/C=C1\C[C@H]2C(=O)N(/C(=C/N(C)C)c3ccncc3)C(N(C)C)N2C1=O` (stereo not given in full) was tested, and the Activity was “Non-Toxic”. For `O=C(NCc1ccc(Cl)cc1Cl)[C@@H]1CCC(=O)N1c1ccc(Cl)cc1`, the Activity was “Non-Toxic”.

What follows are compounds tested on HT-29 (assay: Cytotoxicity against human HT-29 cells assessed as effect on cell growth at 10 uM incubated for 48 hrs by sulforhodamine B assay). Conditions: ht-29, 48 h.
Type: cell-based
With `CN(C)/C=C1\C[C@H]2C(=O)N(/C(=C/N(C)C)c3ccncc3)C(N(C)C)N2C1=O` (stereo not given in full) the Activity was “Non-Toxic”. `O=C(NCc1ccc(Cl)cc1Cl)[C@@H]1CCC(=O)N1c1ccc(Cl)cc1` was tested, and the Activity was “Non-Toxic”.

The compounds below were run on IGROV-1 (assay: Cytotoxicity against human IGROV1 cells assessed as effect on cell growth at 10 uM incubated for 48 hrs by sulforhodamine B assay). Conditions: igrov-1, 48 h.
Type: cell-based
With `CN(C)/C=C1\C[C@H]2C(=O)N(/C(=C/N(C)C)c3ccncc3)C(N(C)C)N2C1=O` (stereo not given in full) the Activity was “Non-Toxic”. In the case of `O=C(NCc1ccc(Cl)cc1Cl)[C@@H]1CCC(=O)N1c1ccc(Cl)cc1`, the Activity is reported as “Non-Toxic”.

These compounds were tested on NCI-H522 (assay: Cytotoxicity against human NCI-H522 cells assessed as effect on cell growth at 10 uM incubated for 48 hrs by sulforhodamine B assay). Conditions: nci-h522, 48 h.
Type: cell-based
With `CN(C)/C=C1\C[C@H]2C(=O)N(/C(=C/N(C)C)c3ccncc3)C(N(C)C)N2C1=O` (stereo not given in full) the Activity was “Non-Toxic”. For `O=C(NCc1ccc(Cl)cc1Cl)[C@@H]1CCC(=O)N1c1ccc(Cl)cc1`, the Activity was “Non-Toxic”.

What follows are compounds tested on UACC-62 (assay: Cytotoxicity against human UACC62 cells assessed as effect on cell growth at 10 uM incubated for 48 hrs by sulforhodamine B assay). Conditions: uacc-62, 48 h.
Type: cell-based
In the case of `CN(C)/C=C1\C[C@H]2C(=O)N(/C(=C/N(C)C)c3ccncc3)C(N(C)C)N2C1=O` (stereo not given in full), the Activity is reported as “Non-Toxic”. For `O=C(NCc1ccc(Cl)cc1Cl)[C@@H]1CCC(=O)N1c1ccc(Cl)cc1`, the Activity was “Non-Toxic”.

The compounds below were run on SNB-19 (assay: Cytotoxicity against human SNB19 cells assessed as effect on cell growth at 10 uM incubated for 48 hrs by sulforhodamine B assay). Conditions: snb-19, 48 h.
Type: cell-based
With `CN(C)/C=C1\C[C@H]2C(=O)N(/C(=C/N(C)C)c3ccncc3)C(N(C)C)N2C1=O` (stereo not given in full) the Activity was “Non-Toxic”. With `O=C(NCc1ccc(Cl)cc1Cl)[C@@H]1CCC(=O)N1c1ccc(Cl)cc1` the Activity was “Non-Toxic”.

Each compound was assayed on NCI-H23 (assay: Cytotoxicity against human NCI-H23 cells assessed as effect on cell growth at 10 uM incubated for 48 hrs by sulforhodamine B assay). Conditions: nci-h23, 48 h.
Type: cell-based
`CN(C)/C=C1\C[C@H]2C(=O)N(/C(=C/N(C)C)c3ccncc3)C(N(C)C)N2C1=O` (stereo not given in full) was tested, and the Activity was “Non-Toxic”. For `O=C(NCc1ccc(Cl)cc1Cl)[C@@H]1CCC(=O)N1c1ccc(Cl)cc1`, the Activity was “Non-Toxic”.

What follows are compounds tested on HCT-116 (assay: Cytotoxicity against human HCT116 cells assessed as effect on cell growth at 10 uM incubated for 48 hrs by sulforhodamine B assay). Conditions: hct-116, 48 h.
Type: cell-based
For `CN(C)/C=C1\C[C@H]2C(=O)N(/C(=C/N(C)C)c3ccncc3)C(N(C)C)N2C1=O` (stereo not given in full), the Activity was “Non-Toxic”. `O=C(NCc1ccc(Cl)cc1Cl)[C@@H]1CCC(=O)N1c1ccc(Cl)cc1` was tested, and the Activity was “Non-Toxic”.

Each compound was assayed on TK-10 (assay: Cytotoxicity against human TK10 cells assessed as effect on cell growth at 10 uM incubated for 48 hrs by sulforhodamine B assay). Conditions: tk-10, 48 h.
Type: cell-based
In the case of `CN(C)/C=C1\C[C@H]2C(=O)N(/C(=C/N(C)C)c3ccncc3)C(N(C)C)N2C1=O` (stereo not given in full), the Activity is reported as “Non-Toxic”. In the case of `O=C(NCc1ccc(Cl)cc1Cl)[C@@H]1CCC(=O)N1c1ccc(Cl)cc1`, the Activity is reported as “Non-Toxic”.

These compounds were tested on PC-3 (assay: Cytotoxicity against human PC3 cells assessed as effect on cell growth at 10 uM incubated for 48 hrs by sulforhodamine B assay). Conditions: pc-3, 48 h.
Type: cell-based
`CN(C)/C=C1\C[C@H]2C(=O)N(/C(=C/N(C)C)c3ccncc3)C(N(C)C)N2C1=O` (stereo not given in full) was tested, and the Activity was “Non-Toxic”. In the case of `O=C(NCc1ccc(Cl)cc1Cl)[C@@H]1CCC(=O)N1c1ccc(Cl)cc1`, the Activity is reported as “Non-Toxic”.

The compounds below were run on NCI/ADR-RES (assay: Cytotoxicity against human NCI/ADR-RES cells assessed as effect on cell growth at 10 uM incubated for 48 hrs by sulforhodamine B assay). Conditions: not given.
Type: cell-based
With `CN(C)/C=C1\C[C@H]2C(=O)N(/C(=C/N(C)C)c3ccncc3)C(N(C)C)N2C1=O` (stereo not given in full) the Activity was “Non-Toxic”. With `O=C(NCc1ccc(Cl)cc1Cl)[C@@H]1CCC(=O)N1c1ccc(Cl)cc1` the Activity was “Non-Toxic”.

The compounds below were run on HOP-92 (assay: Cytotoxicity against human HOP92 cells assessed as effect on cell growth at 10 uM incubated for 48 hrs by sulforhodamine B assay). Conditions: hop-92, 48 h.
Type: cell-based
`CN(C)/C=C1\C[C@H]2C(=O)N(/C(=C/N(C)C)c3ccncc3)C(N(C)C)N2C1=O` (stereo not given in full) was tested, and the Activity was “Non-Toxic”. With `O=C(NCc1ccc(Cl)cc1Cl)[C@@H]1CCC(=O)N1c1ccc(Cl)cc1` the Activity was “Non-Toxic”.

These compounds were tested on U-251 (assay: Cytotoxicity against human U251 cells assessed as effect on cell growth at 10 uM incubated for 48 hrs by sulforhodamine B assay). Conditions: u-251, 48 h.
Type: cell-based
`CN(C)/C=C1\C[C@H]2C(=O)N(/C(=C/N(C)C)c3ccncc3)C(N(C)C)N2C1=O` (stereo not given in full) was tested, and the Activity was “Non-Toxic”. For `O=C(NCc1ccc(Cl)cc1Cl)[C@@H]1CCC(=O)N1c1ccc(Cl)cc1`, the Activity was “Non-Toxic”.

These compounds were tested on Malme-3M (assay: Cytotoxicity against human MALME-3M cells assessed as effect on cell growth at 10 uM incubated for 48 hrs by sulforhodamine B assay). Conditions: not given.
Type: cell-based
With `CN(C)/C=C1\C[C@H]2C(=O)N(/C(=C/N(C)C)c3ccncc3)C(N(C)C)N2C1=O` (stereo not given in full) the Activity was “Non-Toxic”. In the case of `O=C(NCc1ccc(Cl)cc1Cl)[C@@H]1CCC(=O)N1c1ccc(Cl)cc1`, the Activity is reported as “Non-Toxic”.
